Assay [1] relates to HTT mRNA. The assay is described as follows: RT-qPCR splicing assay, HTT canonical junction (CJ) and alternative junction (AJ) mRNA. The format is cell-based, human. Conditions: Homo sapiens; for AC50: increase in HTT alternative junction (AJ) mRNA, read-out: HTT AJ AC50. The gist of the method:
(§1)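 A673 or K562 cells were treated for 24 h at 37 °C with an 11-point 3-fold compound dilution series (top final concentration 10 uM, DMSO ≤0.25%). After lysis, one-step TaqMan RT-qPCR quantified junction transcripts, normalized to PPIA for A673 or to GAPDH/GUSB for K562.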
On the technique in general: Quantitative PCR measures a nucleic acid by following its amplification.

Assay [2] has as its system MYB mRNA. The assay is described as follows: RT-qPCR splicing assay, MYB canonical junction (CJ) and alternative junction (AJ) mRNA. The format is cell-based, human. Conditions: Homo sapiens; for AC50: increase in MYB alternative junction (AJ) mRNA, read-out: MYB AJ AC50. The gist of the method:
as §1

The test system of assay [3] is SMN2 mRNA. Kind of assay: RT-qPCR splicing assay, SMN2 canonical junction (CJ) mRNA. It counts as cell-based, human. The conditions noted are these: Homo sapiens; canonical junction qPCR panel, Table 5; read-out: SMN2 (decrease in CJ mRNA levels, IC50). The gist of the method:
(§2)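 Read-out is canonical exon-exon junction mRNA quantified by RT-qPCR against a GAPDH, GUSB or PPIA control. Cells (A673 or K562) received compound for 24 h, top final dose 10 uM in an 11-point 3-fold series.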

The subject of assay [4] is Target C. Kind of assay: RT-qPCR splicing assay panel, Target C canonical junction (CJ) mRNA. It counts as cell-based, human. Conditions: Homo sapiens; canonical junction qPCR panel, Table 5; read-out: Target C (decrease in CJ mRNA levels, IC50). The gist of the method: as §2
Assay [5] has as its system K562 (human chronic myelogenous leukemia) cells. The assay is described as follows: Cell Titer Glo 2.0 cell viability assay. It counts as cell-based. Conditions: K562 cells, 72 hours, Cell Titer Glo 2.0, read-out: K562 GI50. On the technique in general: Cellular ATP, detected with luciferase, serves as a proxy for viable cell number.
[6] abbreviates: decrease in HTT canonical junction (CJ) mRNA, RT-qPCR, read-out: HTT CJ IC50.
Where [7] appears, read: canonical junction qPCR panel, Table 5, read-out: HTT (decrease in CJ mRNA levels, IC50).
[8] abbreviates: canonical junction qPCR panel, Table 5, read-out: MYB (decrease in CJ mRNA levels, IC50).
Setting [9] is: decrease in MYB canonical junction (CJ) mRNA, RT-qPCR, read-out: MYB CJ IC50.

Read-outs that look alike come from different tables or passages of the source.

As a reminder, the IC50 is the concentration at which inhibition is half-maximal. Usually AC50 stands for the midpoint of the concentration-response curve, whichever way the signal moves. In general, GI50 refers to the concentration at which growth is held to half of that of the control. In the case of `Cc1cn2cc(-c3ncc4c(=O)n([C@H]5CCNC(C)(C)C5)ccc4n3)cc(F)c2n1` [Compound 1497, 6-[(4S)-2,2-dimethyl-4-piperidyl]-2-(8-fluoro-2-methyl-imidazo[1,2-a]pyridin-6-yl)pyrido[4,3-d]pyrimidin-5-one], the IC50 in assay [1] (setting [6]) was 1000 to 10000 nM; in assay [1] (setting [7]), 100 to 1000 nM; in assay [2] (setting [8]) it was 100 to 1000 nM; in assay [2] (setting [9]), 100 to 1000 nM; in assay [3] it was less than 100 nM; in assay [4] it was 1000 to 10000 nM. Moreover, the AC50 in assay [1] (RT-qPCR) and in assay [2] (RT-qPCR) was 100 to 1000 nM in each case. The GI50 in assay [5] (Homo sapiens, K562, 72 h) was 100 to 1000 nM.

Consider `Cc1cn2cc(-c3ncc4c(=O)n([C@@H]5CCN[C@@H](C)C5)ccc4n3)cc(F)c2n1` [Compound 1498, 2-(8-fluoro-2-methyl-imidazo[1,2-a]pyridin-6-yl)-6-[(2S,4R)-2-methyl-4-piperidyl]pyrido[4,3-d]pyrimidin-5-one], for which the IC50 in assay [1] (setting [6]) is 1000 to 10000 nM; in assay [1] (setting [7]), 1000 to 10000 nM; in assay [2] (setting [8]), 100 to 1000 nM; in assay [2] (setting [9]), less than 100 nM; in assay [3], less than 100 nM; in assay [4] it was 1000 to 10000 nM. For the same molecule, the AC50 in assay [1] (RT-qPCR) fell in the range of 1000 to 10000 nM; in assay [2] (RT-qPCR), 100 to 1000 nM. Further, in assay [5] (Homo sapiens, K562, 72 h), the GI50 lay within 100 to 1000 nM.

For `Cc1cn2nc(-c3ccc4c(=O)n(C5CCNCC5)ccc4n3)cc(C)c2n1` [Compound 1499, 2-(2,8-dimethylimidazo[1,2-b]pyridazin-6-yl)-6-(4-piperidyl)-1,6-naphthyridin-5-one], the half-maximal inhibitory concentration (IC50) is less than 100 nM in assay [1] (setting [6]); less than 100 nM in assay [1] (setting [7]); less than 100 nM in assay [2] (setting [8]); less than 100 nM in assay [2] (setting [9]); less than 100 nM in assay [3]; 100 to 1000 nM in assay [4]. Further, the concentration at half-maximal activity (AC50) in assay [1] (RT-qPCR) and in assay [2] (RT-qPCR) was less than 100 nM in each case. In assay [5] (Homo sapiens, K562, 72 h), the GI50 fell in the range of 100 to 1000 nM.

`Cc1cn2cc(-c3ncc4c(=O)n([C@H]5CCN[C@@H](C)C5)ccc4n3)cc(F)c2n1` [Compound 1500, 2-(8-fluoro-2-methyl-imidazo[1,2-a]pyridin-6-yl)-6-[(2S,4S)-2-methyl-4-piperidyl]pyrido[4,3-d]pyrimidin-5-one]: the IC50 in assay [1] (setting [6]) is 100 to 1000 nM; in assay [1] (setting [7]) it was 100 to 1000 nM; in assay [2] (setting [8]), less than 100 nM; in assay [2] (setting [9]) it was less than 100 nM; in assay [3], less than 100 nM; in assay [4], 100 to 1000 nM. Besides, the AC50 is 100 to 1000 nM in assay [1] (RT-qPCR) and less than 100 nM in assay [2] (RT-qPCR). Also, the GI50 in assay [5] (Homo sapiens, K562, 72 h) was in the range of 100 to 1000 nM.

Take `Cc1cn2cc(-c3nc(C)c4c(=O)n([C@H]5CCN[C@@H](C)C5)ccc4n3)cc(F)c2n1` [Compound 1501, 2-(8-fluoro-2-methyl-imidazo[1,2-a]pyridin-6-yl)-4-methyl-6-[(2S,4S)-2-methyl-4-piperidyl]pyrido[4,3-d]pyrimidin-5-one]: the IC50 is 100 to 1000 nM in assay [1] (setting [6]); 100 to 1000 nM in assay [1] (setting [7]); less than 100 nM in assay [2] (setting [8]); less than 100 nM in assay [2] (setting [9]); less than 100 nM in assay [3]; 100 to 1000 nM in assay [4]. The values for the AC50 in assay [1] (RT-qPCR) and in assay [2] (RT-qPCR) were 100 to 1000 nM and less than 100 nM, respectively. Further, the GI50 in assay [5] (Homo sapiens, K562, 72 h) was 100 to 1000 nM.

`Cc1cn2cc(-c3ccc4c(=O)n(C5C[C@H](C)N[C@@H](C)C5)ccc4n3)cc(F)c2n1` (stereo partly drawn) [Compound 1502, 6-[(2S,6S)-2,6-dimethyl-4-piperidyl]-2-(8-fluoro-2-methyl-imidazo[1,2-a]pyridin-6-yl)-1,6-naphthyridin-5-one]: the IC50 in assay [1] (setting [6]) was 1000 to 10000 nM; in assay [1] (setting [7]) it was 1000 to 10000 nM; in assay [2] (setting [8]), 100 to 1000 nM; in assay [2] (setting [9]) it was 100 to 1000 nM; in assay [3] it was less than 100 nM; in assay [4], 1000 to 10000 nM. The AC50 in assay [1] (RT-qPCR) was 1000 to 10000 nM; in assay [2] (RT-qPCR) it was 100 to 1000 nM. Further, the GI50 in assay [5] (Homo sapiens, K562, 72 h) lay in the range of 100 to 1000 nM.

On to `C[C@H]1C[C@@H](n2ccc3nc(-c4cc(F)c5nn(C)cc5c4)ncc3c2=O)CCN1` [Compound 1503, 2-(7-fluoro-2-methyl-indazol-5-yl)-6-[(2S,4S)-2-methyl-4-piperidyl]pyrido[4,3-d]pyrimidin-5-one], for which the IC50 is 100 to 1000 nM in assay [1] (setting [6]); 100 to 1000 nM in assay [1] (setting [7]); 100 to 1000 nM in assay [2] (setting [8]); less than 100 nM in assay [2] (setting [9]); less than 100 nM in assay [3]; 100 to 1000 nM in assay [4]. Further, the AC50 in assay [1] (RT-qPCR) and in assay [2] (RT-qPCR) was 100 to 1000 nM throughout. The GI50 in assay [5] (Homo sapiens, K562, 72 h) lay within 100 to 1000 nM.

In the case of `Cc1cn2nc(-c3ccc4c(=O)n(C56CCC(N)(CC5)C6)ccc4n3)cc(C)c2n1` [Compound 1504, 6-(4-aminonorbornane-1-yl)-2-(2,8-dimethylimidazo[1,2-b]pyridazin-6-yl)-1,6-naphthyridin-5-one], the IC50 was 1000 to 10000 nM in assay [1] (setting [6]); 100 to 1000 nM in assay [1] (setting [7]); less than 100 nM in assay [2] (setting [8]); less than 100 nM in assay [2] (setting [9]); less than 100 nM in assay [3]; 1000 to 10000 nM in assay [4]. The results for the AC50 in assay [1] (RT-qPCR) and in assay [2] (RT-qPCR) were 100 to 1000 nM and less than 100 nM, respectively. Moreover, the GI50 in assay [5] (Homo sapiens, K562, 72 h) fell in the range of 100 to 1000 nM.

As to `Cc1cn2nc(-c3ccc4c(=O)n([C@@H]5CCNC6(CCC6)C5)ccc4n3)cc(C)c2n1` [Compound 1517], the IC50 was 100 to 1000 nM in assay [1] (setting [6]); 100 to 1000 nM in assay [1] (setting [7]); 100 to 1000 nM in assay [2] (setting [8]); 100 to 1000 nM in assay [2] (setting [9]); less than 100 nM in assay [3]; 1000 to 10000 nM in assay [4]. Moreover, the AC50 in assay [1] (RT-qPCR) and in assay [2] (RT-qPCR) was 100 to 1000 nM throughout. Further, in assay [5] (Homo sapiens, K562, 72 h), the GI50 was in the range of 1000 to 10000 nM.

`Cc1cn2nc(-c3ccc4c(=O)n([C@H]5CCNC6(CCC6)C5)ccc4n3)cc(C)c2n1` [Compound 1518]: the IC50 in assay [1] (setting [6]) was 100 to 1000 nM; in assay [1] (setting [7]) it was 100 to 1000 nM; in assay [2] (setting [8]) it was 100 to 1000 nM; in assay [2] (setting [9]), less than 100 nM; in assay [3], less than 100 nM; in assay [4], 100 to 1000 nM. Besides, the AC50 in assay [1] (RT-qPCR) and in assay [2] (RT-qPCR) was 100 to 1000 nM throughout. Further, the GI50 in assay [5] (Homo sapiens, K562, 72 h) lay in the range of 100 to 1000 nM.

For the molecule `Cc1c(O)c(-c2ccc3c(=O)n([C@H]4CCN[C@@H](C)C4)ccc3n2)cc2cn(C)nc12` [Compound 1520, 2-(6-hydroxy-2,7-dimethyl-indazol-5-yl)-6-[(2S,4S)-2-methyl-4-piperidyl]-1,6-naphthyridin-5-one], the IC50 in assay [1] (setting [6]) is 100 to 1000 nM; in assay [1] (setting [7]), less than 100 nM; in assay [2] (setting [8]) it was less than 100 nM; in assay [2] (setting [9]), less than 100 nM; in assay [3] it was less than 100 nM; in assay [4], 100 to 1000 nM. Moreover, the AC50 in assay [1] (RT-qPCR) and in assay [2] (RT-qPCR) was less than 100 nM each time. The GI50 in assay [5] (Homo sapiens, K562, 72 h) was less than 100 nM.

Turning to `Cc1c(O)c(-c2ncc3c(=O)n([C@H]4CC[C@H](N)C4)ccc3n2)cc2cn(C)nc12` [Compound 1521], the IC50 in assay [1] (setting [6]) was 1000 to 10000 nM; in assay [1] (setting [7]) it was 100 to 1000 nM; in assay [2] (setting [8]) it was 100 to 1000 nM; in assay [2] (setting [9]) it was 100 to 1000 nM; in assay [3], less than 100 nM; in assay [4], 1000 to 10000 nM. Also, the AC50 in assay [1] (RT-qPCR) and in assay [2] (RT-qPCR) was 100 to 1000 nM in each case. In addition, the GI50 in assay [5] lay in the range of 100 to 1000 nM.

Regarding `CNC12CCC(n3ccc4nc(-c5cc6cn(C)nc6c(C)c5O)ccc4c3=O)(CC1)C2` [Compound 1522], the IC50 in assay [1] (setting [6]) is 100 to 1000 nM; in assay [1] (setting [7]) it was 100 to 1000 nM; in assay [2] (setting [8]) it was less than 100 nM; in assay [2] (setting [9]), less than 100 nM; in assay [3], less than 100 nM; in assay [4], 100 to 1000 nM. Besides, the AC50 in assay [1] (RT-qPCR) was 100 to 1000 nM; in assay [2] (RT-qPCR) it was less than 100 nM. The GI50 in assay [5] (Homo sapiens, K562, 72 h) is less than 100 nM.

Source of the values: patent US20250332173A1, “COMPOUNDS AND METHODS FOR MODULATING NUCLEIC ACID SPLICING” (REMIX THERAPEUTICS INC., priority 2021, published 2025).
